Reference: patent US11180510B2, “Xanthine derivatives and uses thereof as inhibitors of bromodomains of BET proteins” (Centre national de la recherche scientifique, priority 2017, dated 2021)

Target: BRD4(BD1) (Homo sapiens, UniProt O60885)
Experiment: HTRF assay, BRD4(BD1)/histone peptide interaction
Assay type: binding
Design: made in house

- IC50 (HTRF, mean of three experiments, NA = IC50 > 50 μM, read-out: Brd4(8D1) IC50): 0.074 µM
- Ratio 4-1 vs 4-2 (selectivity Brd4(BD1) vs Brd4(BD2), HTRF IC50): 31
Compound: CCn1cnc2c1c(=O)[nH]c(=O)n2Cc1ccc(CNS(=O)(=O)c2ccc(OC3CCOCC3)c(F)c2)cc1 [Compound 43c]
